Laboratory results from patent publication US7534763B2 (Bristol-Myers Squibb Company, priority 2004, dated 2009).
Like-named read-outs stand apart in the source and are kept apart here. *1 amine or outer side, *2 acyl side, *3 side chain or, on linkers, in order; H or OH if unused. Where a SMILES comes first, the peptide text is derived from it. [ ]: non-standard residue; d: D form. The star is where a group is joined. ξ: configuration not given here. Ala(6-(2-MePh)pyridin-3-yl) = Cc1ccccc1-c1ccc(C[C@H](N)C(=O)O)cn1; Phe(4-(2-Et-4-HO-Ph)) = CCc1cc(O)ccc1-c1ccc(C[C@H](N)C(=O)O)cc1; Bip(2'-Et-4'-OMe) = CCc1cc(OC)ccc1-c1ccc(C[C@H](N)C(=O)O)cc1; Lactoyl(3-(imidazol-4-yl)) = O=C([C@@H](O)Cc1c[nH]cn1)*; X2 = Cc1ccccc1-c1ncc(C[C@H](N[*:1])C(=O)[*:2])cn1; αMePhe(2,6-F2) = C[C@](N)(Cc1c(F)cccc1F)C(=O)O; αMePhe(2-F) = C[C@](N)(Cc1ccccc1F)C(=O)O; ξαMePhe(2-F) = CC(N)(Cc1ccccc1F)C(=O)O; αMeP = C[C@@]1(C(=O)O)CCCN1; dNMeA = CN[C@H](C)C(=O)O; ξαMeP = CC1(C(=O)O)CCCN1; Aib = CC(C)(N)C(=O)O; Moc = COC(=O)*

What was measured:
Format in all cases: in vivo
ob/ob mice = assay: intraperitoneal glucose tolerance test (ipGTT) after sc injection in ob/ob mice (plasma glucose, insulin); settings: ob/ob mice; for effect on postprandial plasma glucose (in words): sc, ipGTT 0-180 or 210 min
Protocol: (§1) Peptides were dissolved in an appropriate vehicle at a concentration in nmol/ml equivalent to the dose that was to be administered in nmol/kg so that each mouse would receive the same volume/weight of dosing solution. Male C57BL/6J-ob/ob mice (10 weeks old) were randomized into groups of 6 mice per group based on fed plasma glucose and body weight. After an overnight fast, mice were weighed and placed in the experimental lab. After 30 min in the environment, the mice were bled via tail tip at −30 min and immediately injected subcutaneously (sc) with vehicle or the peptide dissolved in vehicle (0.1 ml solution/100 g body weight). At time 0 the mice were bled and then injected intraperitoneally with 50% glucose (2 g/kg) to initiate the intraperitoneal glucose tolerance test (ipGTT). The mice were bled 30, 60, 120 and 180 min after the glucose injection. Blood samples were drawn into potassium EDTA, placed on ice during the study and subsequently centrifuged for 10 min at 3000 rpm at 4° C. Plasma samples were diluted 11-fold for glucose analysis in the Cobas System. Another 5 μl plasma sample was diluted 5-fold with 20 μl of Sample Diluent (Insulin ELISA assay kit, Crystal Chem Inc.) and stored at −20° C. for subsequent analysis using the Ultra Sensitive Mouse Insulin ELISA kit (Crystal Chem Inc.).

[1] = Exposure during ipGTT in ob/ob mice; settings: sc
Protocol: as §1

[2] = Dog pharmacokinetic study (iv and sc, solution vehicles); settings: beagle, plasma, dog; for half-life: read-out: t½ (converted)
Protocol: The pharmacokinetic parameters of the compound of SEQ ID NO:9 were determined in male beagle dogs (n=4, 14±1 kg). Following an overnight fast, each animal received the compound of SEQ ID NO:9 either as an intravenous bolus via femoral vein (67 μg/kg) or by subcutaneous injection given at near the shoulder blades (67 μg/kg). Each animal received both intravenous and subcutaneous doses with a one-week washout between doses following a crossover design. […] Serial blood samples were collected in EDTA-containing microcentrifuge tubes at predose, 0.083, 0.25, 0.5, 0.75, 1, 2, 4, 6, 8, 24, and 30 hours post-dose after intravenous administration; at predose, 0.25, 0.5, 0.75, 1, 2, 4, 6, 8, 24, and 30 hours post-dose after subcutaneous administration. Approximately 0.3 mL of blood was collected at each time point. Blood samples were immediately centrifuged at 4° C. The obtained plasma was frozen with dry ice and stored at −20° C. Plasma drug levels were determined using the LC-MS/MS assay described above.
Plasma samples from in vivo dog study were prepared for analysis by precipitating plasma proteins with two volumes of acetonitrile containing an internal standard. The samples were vortex mixed and removed the precipitated proteins by centrifugation. The resulting supernatants were transferred to a 96-well plate and 10 μL were injected for analysis. Samples were prepared with the Packard Multiprobe II and Quadra 96 Liquid Handling System.
The HPLC system consisted of two Shimadzu LC10AD pumps (Columbia, Md.), a CTC PAL autosampler (Leap Technologies, Switzerland). The column used was a YMC Hydrosphere C18 (2.0×50 mm, 3 μm) (YMC, Inc., Milford, Ma.). The column temperature was maintained at 50° C. and the flow rate was 0.3 mL/minute. The mobile phase A consisted of 10 mM ammonium formate and 0.1% formic acid in water and mobile phase B consisted of 0.1% formic acid in acetonitrile. The initial mobile phase composition was 5% B, and remained at 5% B for one minute to equilibrate the column. The composition was ramped to 95% B over two minutes and held there for one additional minute. The mobile phase was then returned to initial conditions in one minute. Total analysis time was five minutes. A switching valve was used. The eluents between 0-1 minute were diverted to the waste.
The HPLC was interfaced to a Sciex API 4000 mass spectrometer, (Applied Biosystems, Foster City, Calif.) and was equipped with a TurboIonspray ionization source. Ultra high purity nitrogen was used as the nebulizing and turbo gas. The temperature of turbo gas was set at 300° C. and the interface heater was set at 60° C. Data acquisition utilized selected reaction monitoring (SRM). Ions representing the (M+2H)^2+ species for the compound of SEQ ID NO:9, and (M+2H)^2+ for BMS-501143 (IS) were selected in Q1 and were collisionally dissociated with high purity nitrogen at a pressure of 3.5×10^−3torr to form specific product ions which were subsequently monitored by Q3.
The standard curve concentrations, ranging from 1 to 1000 nM and from 4 to 5000 nM, were used for the in vivo samples obtained from low and high doses, respectively. The curves were fitted with a quadratic regression weighted by reciprocal […]. Standards were analyzed in duplicate. Quality control (QC) samples, prepared in blank matrix at the same concentrations as the standard were also analyzed in each analytical set. For the compound of SEQ ID NO:9, the calculated concentrations of more than 80% of the QCs were within 20% of nominal concentration, indicating acceptable assay performance.
The compound of SEQ ID NO:9 plasma concentration vs. time data were analyzed by noncompartmental methods using the […]™ software program. The Cmax and Tmax values were recorded directly from experimental observations. The AUC0-n and AUCtot values were calculated using a combination of linear and log trapezoidal summations. […]

[3] = 67 ug/kg, intravenous 67 μg/kg, Tables 6A-6C (6A vehicle 0.2 M Tris, pH 8.0)
[4] = sc, 67 ug/kg, subcutaneous 67 μg/kg, Tables 6A-6C (vehicle 0.2 M Tris, pH 8.0)
[5] = male, sc, 67 ug/kg, Table II, vehicle propylene glycol/pH 7.4 phosphate buffer (1:1), read-out: Exposure in dogs (sc@67 μg/kg)

CCc1cc(O)ccc1-c1ccc(C[C@H](NC(=O)[C@H](CC(=O)O)NC(=O)[C@H](CO)NC(=O)[C@@H](NC(=O)C(C)(Cc2ccccc2F)NC(=O)[C@@H](NC(=O)CNC(=O)[C@H](CCC(=O)O)NC(=O)C2(C)CCCN2C(=O)[C@H](Cc2c[nH]cn2)NC(=O)OC)[C@@H](C)O)[C@@H](C)O)C(=O)N[C@@H](Cc2ccc(-c3ccccc3C)nc2)C(N)=O)cc1 (stereo partly shown) [SEQ ID NO: 158] (Moc-H[ξαMeP]EGT[ξαMePhe(2-F)]TSD[Phe(4-(2-Et-4-HO-Ph))][Ala(6-(2-MePh)pyridin-3-yl)]-NH2)
effect on postprandial plasma glucose (in words) (ob/ob mice): statistically significant decrease | Exposure/dose during ipGTT in ob/ob mice [1]: 11 nM * h/nmol/kg | MRT [2, 3]: 4.9 ± 0.7 h | AUC ([2]; 67 ug/kg, intravenous 67 μg/kg, Tables 6A-6C (6A vehicle 0.2 M Tris, pH 8.0), read-out: AUCtot): 1.39 ± 0.227 µM·h | clearance ([2]; 67 ug/kg, intravenous 67 μg/kg, Tables 6A-6C (6A vehicle 0.2 M Tris, pH 8.0), read-out: CLp): 0.51 ± 0.08 mL/min/kg | half-life [2, 3]: 4.4 ± 0.4 h | Cmax [2, 4]: 279 ± 82 nM | MRT [2, 4]: 5.2 ± 1.5 h | Tmax [2, 4]: 1.4 ± 0.7 h | AUC ([2]; sc, 67 ug/kg, subcutaneous 67 μg/kg, Tables 6A-6C (vehicle 0.2 M Tris, pH 8.0), read-out: AUCtot): 1.47 ± 0.563 µM·h | half-life [2, 4]: 3.9 ± 1.3 h | bioavailability ([2]; subcutaneous vs intravenous 67 μg/kg, Tables 6A-6C (vehicle 0.2 M Tris, pH 8.0)): 110 ± 49%

CCc1cc(OC)ccc1-c1ccc(C[C@H](NC(=O)[C@H](CC(=O)O)NC(=O)[C@H](CO)NC(=O)[C@@H](NC(=O)[C@](C)(Cc2ccccc2F)NC(=O)[C@@H](NC(=O)CNC(=O)[C@H](CCC(=O)O)NC(=O)[C@@H](C)N(C)C(=O)[C@@H](N)Cc2c[nH]cn2)[C@@H](C)O)[C@@H](C)O)C(=O)N[C@@H](Cc2ccc(-c3ccccc3C)nc2)C(N)=O)cc1 [SEQ ID NO: 119] (H-H[dNMeA]EGT[αMePhe(2-F)]TSD[Bip(2'-Et-4'-OMe)][Ala(6-(2-MePh)pyridin-3-yl)]-NH2)
AUC [2, 5]: 1.26 µM·h

CCc1cc(OC)ccc1-c1ccc(C[C@H](NC(=O)[C@H](CC(=O)O)NC(=O)[C@H](CO)NC(=O)[C@@H](NC(=O)[C@](C)(Cc2c(F)cccc2F)NC(=O)[C@@H](NC(=O)CNC(=O)[C@H](CCC(=O)O)NC(=O)[C@]2(C)CCCN2C(=O)[C@H](Cc2c[nH]cn2)NC(=O)OC)[C@@H](C)O)[C@@H](C)O)C(=O)N[C@@H](Cc2ccc(-c3ccccc3C)nc2)C(N)=O)cc1 [SEQ ID NO: 140] (Moc-H[αMeP]EGT[αMePhe(2,6-F2)]TSD[Bip(2'-Et-4'-OMe)][Ala(6-(2-MePh)pyridin-3-yl)]-NH2)
AUC [2, 5]: 0.283 µM·h

CCc1cc(OC)ccc1-c1ccc(C[C@H](NC(=O)[C@H](CC(=O)O)NC(=O)[C@H](CO)NC(=O)[C@@H](NC(=O)[C@](C)(Cc2ccccc2F)NC(=O)[C@@H](NC(=O)CNC(=O)[C@H](CCC(=O)O)NC(=O)C(C)(C)NC(=O)[C@@H](N)Cc2c[nH]cn2)[C@@H](C)O)[C@@H](C)O)C(=O)N[C@@H](Cc2cnc(-c3ccccc3C)nc2)C(N)=O)cc1 [SEQ ID NO: 130] (H-H[Aib]EGT[αMePhe(2-F)]TSD[Bip(2'-Et-4'-OMe)][X2]-NH2)
AUC [2, 5]: 0.541 µM·h

CCc1cc(OC)ccc1-c1ccc(C[C@H](NC(=O)[C@H](CC(=O)O)NC(=O)[C@H](CO)NC(=O)[C@@H](NC(=O)[C@](C)(Cc2ccccc2F)NC(=O)[C@@H](NC(=O)CNC(=O)[C@H](Cc2c[nH]cn2)NC(=O)C(C)(C)NC(=O)[C@@H](N)Cc2c[nH]cn2)[C@@H](C)O)[C@@H](C)O)C(=O)N[C@@H](Cc2ccc(-c3ccccc3C)nc2)C(N)=O)cc1 [SEQ ID NO: 150] (H-H[Aib]HGT[αMePhe(2-F)]TSD[Bip(2'-Et-4'-OMe)][Ala(6-(2-MePh)pyridin-3-yl)]-NH2)
AUC [2, 5]: 0.979 µM·h

CCc1cc(OC)ccc1-c1ccc(C[C@H](NC(=O)[C@H](CC(=O)O)NC(=O)[C@H](Cc2c[nH]cn2)NC(=O)[C@@H](NC(=O)[C@](C)(Cc2ccccc2F)NC(=O)[C@@H](NC(=O)CNC(=O)[C@H](CCC(=O)O)NC(=O)[C@]2(C)CCCN2C(=O)[C@@H](N)Cc2c[nH]cn2)[C@@H](C)O)[C@@H](C)O)C(=O)N[C@@H](Cc2ccc(-c3ccccc3C)nc2)C(N)=O)cc1 [SEQ ID NO: 120] (H-H[αMeP]EGT[αMePhe(2-F)]THD[Bip(2'-Et-4'-OMe)][Ala(6-(2-MePh)pyridin-3-yl)]-NH2)
AUC [2, 5]: 1.12 µM·h

CCc1cc(OC)ccc1-c1ccc(C[C@H](NC(=O)[C@H](CC(=O)O)NC(=O)[C@H](CO)NC(=O)[C@@H](NC(=O)C(C)(Cc2ccccc2F)NC(=O)[C@@H](NC(=O)CNC(=O)[C@H](CCC(=O)O)NC(=O)C2(C)CCCN2C(=O)[C@H](Cc2c[nH]cn2)NC(=O)OC)[C@@H](C)O)[C@@H](C)O)C(=O)N[C@@H](Cc2ccc(-c3ccccc3C)nc2)C(N)=O)cc1 (stereo partly shown) [SEQ ID NO: 139] (Moc-H[ξαMeP]EGT[ξαMePhe(2-F)]TSD[Bip(2'-Et-4'-OMe)][Ala(6-(2-MePh)pyridin-3-yl)]-NH2)
% AUC Reduction in Plasma Glucose in an IP Glucose Tolerance Test after SC Injection of Compound (ob/ob mice; 10 nmol/kg, vs vehicle group): −63% (p < 0.01) | AUC [2, 5]: 1.6 µM·h

CCc1cc(OC)ccc1-c1ccc(C[C@H](NC(=O)[C@H](CC(=O)O)NC(=O)[C@H](CO)NC(=O)[C@@H](NC(=O)[C@](C)(Cc2ccccc2F)NC(=O)[C@@H](NC(=O)CNC(=O)[C@H](CCC(=O)O)NC(=O)[C@@H](C)NC(=O)[C@@H](N)Cc2c[nH]cn2)[C@@H](C)O)[C@@H](C)O)C(=O)N[C@@H](Cc2ccc(-c3ccccc3C)nc2)C(N)=O)cc1 [SEQ ID NO: 149] (H-H[dA]EGT[αMePhe(2-F)]TSD[Bip(2'-Et-4'-OMe)][Ala(6-(2-MePh)pyridin-3-yl)]-NH2)
AUC [2, 5]: 0.94 µM·h

CCc1cc(OC)ccc1-c1ccc(C[C@H](NC(=O)[C@H](CC(=O)O)NC(=O)[C@H](Cc2c[nH]cn2)NC(=O)[C@@H](NC(=O)C(C)(Cc2ccccc2F)NC(=O)[C@@H](NC(=O)CNC(=O)[C@H](CCC(=O)O)NC(=O)C2(C)CCCN2C(=O)[C@@H](O)Cc2c[nH]cn2)[C@@H](C)O)[C@@H](C)O)C(=O)N[C@@H](Cc2ccc(-c3ccccc3C)nc2)C(N)=O)cc1 (stereo partly shown) [SEQ ID NO: 151] ({Lactoyl(3-(imidazol-4-yl))}-[ξαMeP]EGT[ξαMePhe(2-F)]THD[Bip(2'-Et-4'-OMe)][Ala(6-(2-MePh)pyridin-3-yl)]-NH2)
effect on postprandial plasma glucose (in words) (ob/ob mice): statistically significant decrease | Exposure/dose during ipGTT in ob/ob mice [1]: 16 nM * h/nmol/kg
